Structures are written as SMILES. pIC50, pKi: −log10 of the molar value. A value given as a limit tells only on which side of the number the result lay.

Assay [1] concerns the target T1, Thromboxane A2 receptor (Homo sapiens, UniProt P21731).
T1 sequence (P21731 whole entry): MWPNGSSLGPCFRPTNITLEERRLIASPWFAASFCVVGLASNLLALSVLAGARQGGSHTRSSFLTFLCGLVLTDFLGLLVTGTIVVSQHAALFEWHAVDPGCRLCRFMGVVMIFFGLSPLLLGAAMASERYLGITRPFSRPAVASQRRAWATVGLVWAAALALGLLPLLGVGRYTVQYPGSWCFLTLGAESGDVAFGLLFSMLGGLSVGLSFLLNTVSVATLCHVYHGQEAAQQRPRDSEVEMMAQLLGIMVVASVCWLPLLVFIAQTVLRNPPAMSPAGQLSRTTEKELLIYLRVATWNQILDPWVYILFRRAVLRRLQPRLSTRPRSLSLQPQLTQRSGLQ
The experiment in a line: Inhibition of [3H]SQ-29,548 binding to human Thromboxane A2 receptor.

Assay [2] addresses T2, Prostaglandin D2 receptor 2 (Homo sapiens, UniProt Q9Y5Y4).
T2 sequence (Q9Y5Y4 whole entry): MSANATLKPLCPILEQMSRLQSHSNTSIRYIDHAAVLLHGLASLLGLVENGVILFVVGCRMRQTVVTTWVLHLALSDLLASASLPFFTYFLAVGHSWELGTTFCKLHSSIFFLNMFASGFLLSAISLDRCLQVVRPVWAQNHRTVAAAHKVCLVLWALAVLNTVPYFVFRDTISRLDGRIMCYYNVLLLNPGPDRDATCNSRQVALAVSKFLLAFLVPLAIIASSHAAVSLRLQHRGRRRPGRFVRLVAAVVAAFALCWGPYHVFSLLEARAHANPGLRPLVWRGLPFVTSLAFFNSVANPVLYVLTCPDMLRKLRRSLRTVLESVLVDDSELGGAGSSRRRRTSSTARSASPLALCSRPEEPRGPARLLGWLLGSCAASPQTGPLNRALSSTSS
The experiment in a line: Inhibition of [3H]PGD-2 binding to human chemoattractant receptor-homologous molecule expressed on Th2 cells (CRTH2). The class given is cell-based.

For assay [3], the target named is T2, Prostaglandin D2 receptor 2. The experiment in a line: Inhibition of PGD2-induced inositol phosphate formation at human chemoattractant receptor-homologous molecule expressed on TH2 cells. It counts as functional, cell-based.
Assay [4] deals with T1, Thromboxane A2 receptor. Nature of the assay: Inhibition of U-46,619-induced inositol phosphate accumulation at human Thromboxane A2 receptor. The class given is functional.
Assay [5] concerns the target T2, Prostaglandin D2 receptor 2. The experiment in a line: Inhibition of beta-arrestin translocation at human chemoattractant receptor-homologous molecule expressed on TH2 cells in BRET assay. It counts as functional, cell-based. (BRET reads energy transfer from a luciferase to a nearby fluorophore.)
Assay [6] has as its target T3, Prostaglandin D2 receptor (Homo sapiens, UniProt Q13258).
T3 sequence (Q13258 whole entry): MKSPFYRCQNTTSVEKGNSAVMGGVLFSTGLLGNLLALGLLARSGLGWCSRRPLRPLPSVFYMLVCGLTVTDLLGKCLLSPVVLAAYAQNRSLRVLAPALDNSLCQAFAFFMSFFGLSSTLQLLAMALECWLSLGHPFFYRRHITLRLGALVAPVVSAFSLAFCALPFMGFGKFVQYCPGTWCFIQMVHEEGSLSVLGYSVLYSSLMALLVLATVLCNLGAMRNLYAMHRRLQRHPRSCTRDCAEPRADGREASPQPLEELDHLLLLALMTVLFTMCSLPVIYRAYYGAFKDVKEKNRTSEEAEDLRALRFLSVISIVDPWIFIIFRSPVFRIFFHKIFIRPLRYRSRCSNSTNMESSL
The experiment in a line: Inhibition of PGD2-induced inositol phosphate formation at human Prostaglandin D2 receptor. It counts as functional.

Assay [7] deals with T3, Prostaglandin D2 receptor. Nature of the assay: Inhibition of [3H]-PGD-2 binding to human Prostaglandin D2 receptor.
Assay [8] addresses T1, Thromboxane A2 receptor. Nature of the assay: Inhibition of beta-arrestin translocation at human Thromboxane A2 receptor in BRET assay. It counts as functional.

As a reminder, the pKi is the negative decadic logarithm of the Ki, by convention in mol/L. A lower pKi goes with a large Ki. As a reminder, the pIC50 is the IC50 on a negative log10 scale, so that one unit is a factor of ten. A higher pIC50 goes with a small IC50. Take `O=C(O)Cn1c2c(c3ccccc31)C[C@H](NS(=O)(=O)c1ccc(F)cc1)CC2`: the negative-log Ki (pKi) at Thromboxane A2 receptor [1] was 6.27; in assay [2], 9.29; in assay [7] it was 5.28. For the same compound, the pIC50 in assay [3] was 8.42; on Thromboxane A2 receptor [4] it was 5.77; in assay [5], 8.42; in assay [6], less than 5.00.
`CN([C@@H]1CCc2c(c3ccccc3n2CCC(=O)O)C1)S(=O)(=O)c1ccc(F)cc1`: the negative-log Ki (pKi) on Thromboxane A2 receptor [1] is 5.52; in assay [2] it was 8.72; in assay [7], 5.21. The pIC50 was 7.59 in assay [3], 5.34 against Thromboxane A2 receptor [4], 7.82 in assay [5] and less than 5.00 in assay [6].
Take `O=C(O)CCn1c2c(c3ccccc31)C[C@H](NS(=O)(=O)c1ccc(F)cc1)CC2` [RAMATROBAN]: the negative-log Ki (pKi) is 8.35 at Thromboxane A2 receptor [1], 8.37 in assay [2] and less than 5.00 in assay [7]. Further, the pIC50 in assay [3] is 7.54; at Thromboxane A2 receptor [4], 8.02; in assay [5], 7.55; in assay [6] it was less than 5.00; at Thromboxane A2 receptor [8] it was 8.08.

These data come from ChEMBL document CHEMBL1144406 (J Med Chem, 2005).
